Literature values in patent US20230012071A1, “MODIFIED RELEASE PHARMACEUTICAL COMPOSITIONS OF RIOCIGUAT” (ZYDUS LIFESCIENCES LIMITED, priority 2019, published 2023).

Settings: existing marketed immediate release tablet

COC(=O)N(C)c1c(N)nc(-c2nn(Cc3ccccc3F)c3ncccc23)nc1N
absolute bioavailability: about 94%
time at which peak plasma concentrations are observed following drug administration: ≤ 1.5 h
